Measured values taken from ChEMBL document CHEMBL1157694, “Synthesis of a new cytotoxic cephalostatin/ritterazine analogue from hecogenin and 22-epi-hippuristanol” (2010).

Legend:
Format in all cases: functional
[1] = tested on: HT-29; test: Growth inhibition of human HT-29 cells after 72 hrs by sulforhodamine B assay; settings: HT-29, 72 h
[2] = tested on: A549; test: Growth inhibition of human A549 cells after 72 hrs by sulforhodamine B assay; settings: A549, 72 h
[3] = tested on: MDA-MB-231; test: Growth inhibition of human MDA-MB-231 cells after 72 hrs by sulforhodamine B assay; settings: MDA-MB-231, 72 h

GI50 [1]	GI50 [2]	GI50 [3]	SMILES
1600 nM	1600 nM	2000 nM	C[C@H]1CC[C@@]2(OC1)O[C@H]1C[C@H]3[C@@H]4CC[C@H]5Cc6nc7c(nc6C[C@]5(C)[C@H]4CC(=O)[C@]3(C)[C@H]1[C@@H]2C)C[C@@H]1CC[C@H]2[C@@H]3C[C@@H]4O[C@]5(C[C@H](C)C(C)(C)O5)[C@](C)(O)[C@@H]4[C@@]3(C)CC(=O)[C@@H]2[C@@]1(C)C7
2100 nM	1700 nM	2600 nM	C[C@H]1CC[C@@]2(OC1)O[C@H]1C[C@H]3[C@@H]4CC[C@H]5Cc6nc7c(nc6C[C@]5(C)[C@H]4CC(=O)[C@]3(C)[C@H]1[C@@H]2C)C[C@@H]1CC[C@@H]2[C@H](CC(=O)[C@]3(C)[C@@H]4[C@H](C[C@@H]23)O[C@]2(CC[C@H](C)CO2)[C@H]4C)[C@@]1(C)C7

SMILES	GI50 [1]	GI50 [2]	GI50 [3]
C[C@H]1C[C@]2(O[C@H]3C[C@H]4[C@@H]5CC[C@H]6C[C@H](O)CC[C@]6(C)[C@H]5[C@@H](O)C[C@]4(C)[C@H]3[C@@]2(C)O)OC1(C)C [EPIHIPPURISTANOL]	4500 nM	3200 nM	5600 nM
